According to patent EP0187355A1, “Process for preparing beta-lactam antibiotics” (E.R. Squibb & Sons, Inc., priority 1981, dated 1982):
Counter-ions that a name gives are not always drawn.

How the values were obtained:
Test in all cases: MIC, agar dilution
Format in all cases: cell-based
[1] = system: Streptococcus agalactiae, 9287; conditions: Streptococcus agalactiae, 9287, 18 h, K-10 agar, 10^4 CFU, 37°C, read-out: M.I.C.
Protocol: (§1) The following methodology is used to determine the minimum inhibitory concentration (hereinafter referred to as MIC) of the […] of this invention.
(§2) The test organisms are grown in approximately 15-20 ml of Antibiotic Assay broth (Difco) by inoculating (in tubes) the broth with a loopful of the organism from a BHI (Difco) agar slant. The inoculated tubes are incubated at 37°C for 18 to 20 hours. These cultures are assumed to contain 10^9 colony forming units (hereinafter CFU) per milliliter. The cultures are diluted 1:100 to give a final inoculum level of 10^4 CFU; dilutions are made with K-10 broth^*.
(§3) The compounds are dissolved in the appropriate diluent at a concentration of 1000 µg/ml. Twofold dilutions are made in K-10 broth resulting in a range from 1000 µg/ml to 0.5 µg/ml. 1.5 ml of each dilution is placed into individual square petri dishes to which 13.5 ml of K-10 agar^** is added. The final drug concentration in the agar ranges from 100 µg/ml to 0.05 µg/ml. Organism growth control plates containing agar only are prepared and inoculated before and after the test plates. The organisms are applied to the agar surface of each plate with the Denley Multipoint Inoculator (which delivers approximately 0.001 ml of each organism) resulting in a final inoculum level of 10^4 CFU on the agar surface.
(§4) The MIC is the lowest concentration of compound inhibiting growth of the organism.
(§5) The number following each organism refers to the number of the organism in the collection of E. R. Squibb & Sons,.Inc., Princeton, New Jersey. […] The symbol "N.T." means not tested.

[2] = system: Enterobacter cloacae, 8236; conditions: Enterobacter cloacae, 8236, 18 h, K-10 agar, 10^4 CFU, 37°C
Protocol: as §1, §2, §3, §4, §5

[3] = system: Micrococcus luteus, 2495; conditions: K-10 agar, 10^4 CFU, 37°C; for MIC: Micrococcus luteus, 2495, 18 h, read-out: M.I.C.
Protocol: as §1, §2, §3, §4, §5

[4] = system: Pseudomonas aeruginosa, 8329; conditions: K-10 agar, 10^4 CFU, 37°C, 18 hours, read-out: M.I.C.
Protocol: as §1, §2, §3
(§6) The plates are incubated at 37 °C for 18 hours and the MIC's are determined. The MIC is the lowest concentration of compound inhibiting growth of the organism.
as §5, with “The tables that follow are tabulated results obtained when the B-lactams of this invention are tested against various organisms. The number” for “The number”

[5] = system: Staphylococcus aureus, 2399; conditions: Staphylococcus aureus, 2399, 18 h, Staphylococcus aureus, 2399; K-10 agar, 10^4 CFU, 37°C, 18 hours; read-out: M.I.C.
Protocol: as §1, §2, §3, §6
as §5, with “The tables that follow are tabulated results obtained when the B-lactams of this invention are tested against various organisms. The number” for “The number”

[6] = system: Escherichia coli, 10909; conditions: K-10 agar, 10^4 CFU, 37°C, 18 hours
Protocol: as §1, §2, §3, §6
as §5, with “The tables that follow are tabulated results obtained when the B-lactams of this invention are tested against various organisms. The number” for “The number”

[7] = system: Salmonella typhosa, 1195; conditions: Salmonella enterica, TYPHOSA, 18 h, K-10 agar, 10^4 CFU, 37°C
Protocol: as §1, §2, §3, §6
as §5, with “The tables that follow are tabulated results obtained when the B-lactams of this invention are tested against various organisms. The number” for “The number”

[8] = system: Acinetobacter calcoaceticus, 8333; conditions: Acinetobacter calcoaceticus, 8333, 18 h, K-10 agar, 10^4 CFU, 37°C, read-out: M.I.C.
Protocol: as §1, §2, §3, §6
as §5, with “The tables that follow are tabulated results obtained when the B-lactams of this invention are tested against various organisms. The number” for “The number”

[9] = system: Escherichia coli, 8294; conditions: Escherichia coli, 8294, 18 h, K-10 agar, 10^4 CFU, 37°C
Protocol: as §1, §2, §3, §6
as §5, with “The tables that follow are tabulated results obtained when the B-lactams of this invention are tested against various organisms. The number” for “The number”

[10] = system: Staphylococcus aureus, 2400; conditions: Staphylococcus aureus, 2400; K-10 agar, 10^4 CFU, 37°C, 18 hours; read-out: M.I.C.
Protocol: as §1, §2, §3, §6
as §5, with “The tables that follow are tabulated results obtained when the B-lactams of this invention are tested against various organisms. The number” for “The number”

[11] = system: Klebsiella aerogenes, 10440; conditions: K-10 agar, 10^4 CFU, 37°C, 18 hours, read-out: M.I.C.
Protocol: as §1, §2, §3, §6
as §5, with “The tables that follow are tabulated results obtained when the B-lactams of this invention are tested against various organisms. The number” for “The number”

[12] = system: Proteus rettgeri, 8479; conditions: Providencia rettgeri, K-10 agar, 10^4 CFU, 37°C, 18 hours, read-out: M.I.C.
Protocol: as §1, §2, §3, §6
as §5, with “The tables that follow are tabulated results obtained when the B-lactams of this invention are tested against various organisms. The number” for “The number”

[13] = system: Escherichia coli, 10896; conditions: K-10 agar, 10^4 CFU, 37°C, 18 hours
Protocol: as §1, §2, §3, §6
as §5, with “The tables that follow are tabulated results obtained when the B-lactams of this invention are tested against various organisms. The number” for “The number”

[14] = system: Citrobacter freundii, 9518; conditions: K-10 agar, 10^4 CFU, 37°C, 18 hours, read-out: M.I.C.
Protocol: as §1, §2, §3, §6
as §5, with “The tables that follow are tabulated results obtained when the B-lactams of this invention are tested against various organisms. The number” for “The number”

[15] = system: Streptococcus faecalis, 9011; conditions: Enterococcus faecalis; Streptococcus faecalis, 9011; K-10 agar, 10^4 CFU, 37°C, 18 hours; read-out: M.I.C.
Protocol: as §1, §2, §3, §6
as §5, with “The tables that follow are tabulated results obtained when the B-lactams of this invention are tested against various organisms. The number” for “The number”

[16] = system: Shigella sonnei, 8449; conditions: Shigella sonnei, 8449, 18 h, K-10 agar, 10^4 CFU, 37°C
Protocol: as §1, §2, §3, §6
as §5, with “The tables that follow are tabulated results obtained when the B-lactams of this invention are tested against various organisms. The number” for “The number”

[17] = system: Klebsiella pneumoniae, 9527; conditions: Klebsiella pneumoniae, 9527, 18 h, K-10 agar, 10^4 CFU, 37°C, read-out: M.I.C.
Protocol: as §1, §2, §3, §6
as §5, with “The tables that follow are tabulated results obtained when the B-lactams of this invention are tested against various organisms. The number” for “The number”

[18] = system: Staphylococcus aureus, 10165; conditions: Staphylococcus aureus, 10165; K-10 agar, 10^4 CFU, 37°C, 18 hours; read-out: M.I.C.
Protocol: as §1, §2, §3, §6
as §5, with “The tables that follow are tabulated results obtained when the B-lactams of this invention are tested against various organisms. The number” for “The number”

[19] = system: Serratia marcescens, 9783; conditions: K-10 agar, 10^4 CFU, 37°C; for MIC: Serratia marcescens, 9783, 18 h, read-out: M.I.C.
Protocol: as §1, §2, §3, §6
as §5, with “The tables that follow are tabulated results obtained when the B-lactams of this invention are tested against various organisms. The number” for “The number”

[20] = system: Pseudomonas aeruginosa, 9545; conditions: Pseudomonas aeruginosa, 9545, 18 h, K-10 agar, 10^4 CFU, 37°C, read-out: M.I.C.
Protocol: as §1, §2, §3, §6
as §5, with “The tables that follow are tabulated results obtained when the B-lactams of this invention are tested against various organisms. The number” for “The number”

[21] = system: Escherichia coli, 10857; conditions: Escherichia coli, 10857, 18 h, K-10 agar, 10^4 CFU, 37°C
Protocol: as §1, §2, §3, §6
as §5, with “The tables that follow are tabulated results obtained when the B-lactams of this invention are tested against various organisms. The number” for “The number”

[22] = system: Staphylococcus aureus, 1276; conditions: Staphylococcus aureus, 1276; K-10 agar, 10^4 CFU, 37°C, 18 hours; read-out: M.I.C.
Protocol: as §1, §2, §3, §6
as §5, with “The tables that follow are tabulated results obtained when the B-lactams of this invention are tested against various organisms. The number” for “The number”

[23] = system: Proteus vulgaris, 9416; conditions: K-10 agar, 10^4 CFU, 37°C, 18 hours, read-out: M.I.C.
Protocol: as §1, §2, §3, §6
as §5, with “The tables that follow are tabulated results obtained when the B-lactams of this invention are tested against various organisms. The number” for “The number”

[24] = system: Enterobacter aerogenes, 10078; conditions: Klebsiella aerogenes, 10078, 18 h, Enterobacter aerogenes, 10078; K-10 agar, 10^4 CFU, 37°C, 18 hours; read-out: M.I.C.
Protocol: as §1, §2, §3, §6
as §5, with “The tables that follow are tabulated results obtained when the B-lactams of this invention are tested against various organisms. The number” for “The number”

[25] = system: Proteus mirabilis, 3855; conditions: Proteus mirabilis, 3855, 18 h, K-10 agar, 10^4 CFU, 37°C, read-out: M.I.C.
Protocol: as §1, §2, §3, §6
as §5, with “The tables that follow are tabulated results obtained when the B-lactams of this invention are tested against various organisms. The number” for “The number”

| SMILES | MIC [1] | MIC [2] | MIC [4] | MIC [5] | MIC [6] | MIC [7] | MIC [8] | MIC [9] | MIC [10] | MIC [11] | MIC [12] | MIC [13] | MIC [14] | MIC [15] | MIC [16] | MIC [17] | MIC [18] | MIC [20] | MIC [21] | MIC [22] | other results |
| --- | --- | --- | --- | --- | --- | --- | --- | --- | --- | --- | --- | --- | --- | --- | --- | --- | --- | --- | --- | --- | --- |
| C[C@H]1[C@H](NC(=O)OCc2ccccc2)C(=O)N1S(=O)(=O)O [Example 2, (3S-trans)-4-Methyl-2-oxo-3-[[(phenylmethoxy)carbonyl]-amino]-1-azetidinesulfonic acid, potassium salt] | 100 µg/mL | > 100 µg/mL | > 100 µg/mL | 100 µg/mL | > 100 µg/mL | > 100 µg/mL | > 100 µg/mL | > 100 µg/mL | 100 µg/mL | > 100 µg/mL | > 100 µg/mL | > 100 µg/mL | > 100 µg/mL | > 100 µg/mL | > 100 µg/mL | > 100 µg/mL | > 100 µg/mL | > 100 µg/mL | > 100 µg/mL | 100 µg/mL | MIC [3]: 100 µg/mL; MIC [19]: > 100 µg/mL; MIC [23]: > 100 µg/mL; MIC [24]: > 100 µg/mL; MIC [25]: > 100 µg/mL |
| C[C@H]1[C@H](NC(=O)Cc2ccccc2)C(=O)N1S(=O)(=O)O [Example 3, (3S-trans)-4-Methyl-2-oxo-3-[(phenylacetyl)amino]-1-azetidinesulfonic acid, potassium salt] | 25 µg/mL | > 100 µg/mL | > 100 µg/mL | 50 µg/mL | 25 µg/mL | 50 µg/mL | > 100 µg/mL | 100 µg/mL | 50 µg/mL | 100 µg/mL | 50 µg/mL | 50 µg/mL | 100 µg/mL | > 100 µg/mL | 50 µg/mL | 100 µg/mL | 100 µg/mL | 50 µg/mL | 50 µg/mL | 50 µg/mL | MIC [3]: 25 µg/mL; MIC [19]: 50 µg/mL; MIC [23]: 100 µg/mL; MIC [24]: > 100 µg/mL; MIC [25]: 100 µg/mL |
| CON=C(C(=O)NC1C(=O)N(S(=O)(=O)O)C1C)c1csc(N)n1 (stereo not drawn) [Example 5, [3S-[3α(Z),4β]]-3-[[2-Amino-4-thiazolyl) (methoxyimino)-acetyl]amino]-4-methyl-2-oxo-1-azetidinesulfonic acid, potassium salt] | 3.1 µg/mL | 0.2 µg/mL | 100 µg/mL | 100 µg/mL | < 0.05 µg/mL | < 0.05 µg/mL | 12.5 µg/mL | 0.1 µg/mL | 50 µg/mL | 0.2 µg/mL | < 0.05 µg/mL | 0.1 µg/mL | 0.1 µg/mL | > 100 µg/mL | 0.1 µg/mL | 0.1 µg/mL | > 100 µg/mL | 0.8 µg/mL | < 0.05 µg/mL | 100 µg/mL | M.I.C. ([3]; 18 hours, potassium salt): 3.1 µg/mL; M.I.C. ([19]; 18 hours, potassium salt): 0.8 µg/mL; MIC [23]: < 0.05 µg/mL; MIC [24]: 0.4 µg/mL; MIC [25]: 0.1 µg/mL |
